The structures appear in SMILES notation.

This data set is classed as physicochemical. An excerpt: The polymer coated glass samplers (POG) and the organic rapid equilibrating (ORE) samplers, 10 and 20, both consisting of a thin film (on the order of ˜1-2 μm) of EVA, were calibrated by experimental determination of EVA-Water partition coefficients and sampling rates. The ORE is comprised of a 1.4 μm EVA coating on a 5.1×7.6 cm titanium plate, while the POG utilizes a thin-film of EVA on a glass fiber filter.
A closed system experiment was used to calibrate the POG and ORE devices. Sampling rates and equilibration times were determined for fourteen PBDE congeners. EVA-Water partitioning coefficients (KEVA-W) were experimentally determined for 5 BDE congeners. A Log KEVA-W−Log KOW (Octanol-Water partitioning coefficient) plot was constructed and used to define Log KEVA-W partitioning coefficients for the 14 BDE congeners examined. Values ranged from 6.39 to 10.6. The experimental design was successful in parameterizing the desired constants. In sum, both samplers were successfully calibrated.
A dichloromethane rinsed 20 gallon fish tank was employed for the tank deployment experimental. Three POGs and three OREs were suspended from a stainless steel frame proximate the top of the tank.
Once dry, the tank was filled with artificial seawater comprising sodium chloride, sodium bicarbonate, magnesium sulfate, and high purity Milli-Q water. A handheld multiparameter instrument (YSI-556) was used to confirm salinity (31 parts per thousand), dissolved oxygen (0.19 mM), and temperature (20° C.) prior to starting the experiment. The tank was fit with a plexiglass lid sealed with polytetrafluoroethylene (PTFE; i.e., Teflon®) and duct tape.
The tank was spiked with 0.2 mL of the PBDE Predominant Congener Mixture in n-nonane from Cambridge Isotope laboratories and allowed to equilibrate for 48 hours. Samplers were removed from refrigeration and allowed to equilibrate to room temperature. 400 mL of water was taken to establish the initial concentration. Seven sets of three samplers were added to the tank. The tank was secured with a lid, PTFE and duct tape, as described above. Four hundred milliliter aliquots of tank water and one sampler set were removed at the following time intervals: 1 hr, 2 hrs, 6 hrs, 12 hrs, 3 days, 12 days, and 32 days. The tank was open to the air in the fume hood for less than 4 minutes during each sampling period. After removal, each sampler set was wrapped in pre-cleaned aluminum foil and placed frozen in an airtight bag at −20° C. until extraction and analysis. Water-side 400 mL aliquots were frozen at −20° C. until extraction and analysis.
The POGs and OREs were extracted for analysis of PBDE concentration.
Extracts were analyzed for BDE congeners 17, 28, 47, 66, 71, 85, 99, 100, 138, 153, 154, 183, 190, and 209 by gas chromatography-mass spectrometry (GC/MS). Masses 79 (PBDEs) and 414 (Mirex) were used for quantification with Masses 81 (PBDEs), 487, 486 (DecaBDE), and 412 (Mirex) acting as confirmation ions. Extracts were identified and quantified by comparison with known concentrations of prepared standard solutions.
Sampling rates were calculated experimentally using Equation 2. The sampling rates varied between sampler types. The differences in sampling rates were likely due to variations in the thickness and heterogeneity versus homogeneity of the thin film coating on the respective plates. Sampling rates (RS(s)) were calculated at 1, 2, or 6 hrs depending upon the shape of the uptake curve.

`Brc1ccc(Oc2ccccc2Br)c(Br)c1` [BDE 17]: the “LOG KEVA-W (EVA-water partition coefficient) ORE” value is listed as 6.40 ± 0.08 and the “LOG KEVA-W (EVA-water partition coefficient) POG” value amounted to 6.01 ± 0.07.

As for `Brc1ccc(Oc2ccc(Br)cc2Br)cc1` [BDE 28], the “LOG KEVA-W (EVA-water partition coefficient) ORE” value is reported as 6.38 ± 0.10 and the “LOG KEVA-W (EVA-water partition coefficient) POG” value stood at 5.90 ± 0.06.

For the compound `Brc1ccc(Oc2ccc(Br)cc2Br)c(Br)c1` [BDE 47], the “LOG KEVA-W (EVA-water partition coefficient) ORE” value was 6.79 ± 0.10 and the “LOG KEVA-W (EVA-water partition coefficient) POG” value was 6.43 ± 0.07.

Take `Brc1ccc(Oc2ccc(Br)c(Br)c2)c(Br)c1` [BDE 66]: the “LOG KEVA-W (EVA-water partition coefficient) ORE” value is 6.66 ± 0.11 and the “LOG KEVA-W (EVA-water partition coefficient) POG” value is on record as 6.25 ± 0.07.

For `Brc1ccc(Oc2c(Br)cccc2Br)cc1Br` [BDE 71], the “LOG KEVA-W (EVA-water partition coefficient) ORE” value is 6.67 ± 0.02 and the “LOG KEVA-W (EVA-water partition coefficient) POG” value amounted to 6.24 ± 0.05.

For the origin of these results see US20110070597A1, “Thin-Film Passive Samplers for Detection of Hydrophobic Organic Contaminants and Estrogenicity in Various Environments” (UNIVERSITY OF CONNECTICUT, priority 2009, published 2011).
